pIC50: −log10 of the molar value. Where two headings read alike, the source gives them in different places.
Target: T1, ROP18 (187–554 aa) kinase domain (Toxoplasma gondii, UniProt Q2PAY2)
T1 construct: kinase domain 187-554 of ROP18; His6-GST-MBP-Gb1 fusion from plasmid pETDL4.0-ROP18, E. coli Rosetta 2, amylose beads; 4JRN is the docking structure (187-554), not solved here
Assay: HTRF KinEASE kinase assay with biotinylated peptide substrate
Format: biochemical

T1 sequence (Q2PAY2 187-554): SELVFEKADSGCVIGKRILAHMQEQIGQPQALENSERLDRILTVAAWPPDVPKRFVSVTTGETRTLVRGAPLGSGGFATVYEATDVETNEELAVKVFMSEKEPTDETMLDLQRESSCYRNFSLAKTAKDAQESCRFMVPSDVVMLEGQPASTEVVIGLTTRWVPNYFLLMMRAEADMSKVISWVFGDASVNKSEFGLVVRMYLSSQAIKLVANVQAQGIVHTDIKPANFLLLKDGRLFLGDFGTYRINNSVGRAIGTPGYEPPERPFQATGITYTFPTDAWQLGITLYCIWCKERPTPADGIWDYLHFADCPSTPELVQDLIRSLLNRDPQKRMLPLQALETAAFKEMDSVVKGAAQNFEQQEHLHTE

## C=CCN1C(=O)NC(=O)/C(=C/c2cc(Br)c(OCC(=O)O)c(OC)c2)C1=O [compound 1]
  pIC50: 6.66

## O=C(O)CCCCCN1C(=O)c2c(Br)c(Br)c(Br)c(Br)c2C1=O [compound 11, AK-918/11642046]
read-out: IC50
  pIC50: 7.39
